Data reported in patent US7202280B2, “Methods for the treatment and prevention of pancreatitis and for induction of liver regeneration” (priority 2002, dated 2007).

Assays:
[1] = system: syngenic and metallothionein-SSAT mice; assay: Hepatic, pancreatic and renal polyamine concentration in syngenic and metallothionein-SSAT mice after analogue; format: in vivo, mouse; conditions: Tg mice, 24 h
Protocol: (§1) α-methylspermidine, Bis-α-methylspermine and α-methylspermine were administered in saline. […] The data are expressed as means ±S.D. For statistical analysis, the two-tailed Student's t test was used.

[2] = system: SSAT; assay: Hepatic, pancreatic and renal SSAT activity in syngenic and metallothionein-SSAT mice after analogue; format: in vivo, mouse; conditions: 24 h
Protocol: as §1

CC(N)CCNCCCCN (stereo not drawn) [α-methylspermidine, 1-methylspermidine]
renal Putrescine ([1]; 50 mg/kg): 179.10 pmoles/mg tissue wet weight
renal Spermidine ([1]; 50 mg/kg): 231.02 ± 15.59 pmoles/mg tissue wet weight
renal Spermine ([1]; 50 mg/kg): 896.89 ± 25.61 pmoles/mg tissue wet weight
renal α-Methylspermidine ([1]; 50 mg/kg): 133.67 pmoles/mg tissue wet weight
hepatic N^1-Acetyl-spermidine ([1]; 100 mg/kg): 293.66 pmoles/mg tissue wet weight
hepatic Putrescine ([1]; 100 mg/kg): 834.88 pmoles/mg tissue wet weight
hepatic Spermidine ([1]; 100 mg/kg): 286.11 pmoles/mg tissue wet weight
hepatic Spermine ([1]; 100 mg/kg): 97.52 ± 52.21 pmoles/mg tissue wet weight
hepatic α-Methyl-spermidine ([1]; 100 mg/kg): 676.44 pmoles/mg tissue wet weight
pancreatic N^1-Acetyl-spermidine ([1]; 100 mg/kg): 656.51 pmoles/mg tissue wet weight
pancreatic Putrescine ([1]; 100 mg/kg): 4467.46 pmoles/mg tissue wet weight
pancreatic Spermidine ([1]; 100 mg/kg): 1539.88 ± 351.44 pmoles/mg tissue wet weight
pancreatic Spermine ([1]; 100 mg/kg): 211.73 pmoles/mg tissue wet weight
pancreatic α-Methyl-spermidine ([1]; 100 mg/kg): 731.63 pmoles/mg tissue wet weight
renal N^1-Acetylspermidine ([1]; 100 mg/kg): 65.00 pmoles/mg tissue wet weight
renal Putrescine ([1]; 100 mg/kg): 133.86 pmoles/mg tissue wet weight
renal Spermidine ([1]; 100 mg/kg): 212.40 ± 10.9 pmoles/mg tissue wet weight
renal Spermine ([1]; 100 mg/kg): 840.58 ± 67.32 pmoles/mg tissue wet weight
renal α-Methylspermidine ([1]; 100 mg/kg): 136.61 pmoles/mg tissue wet weight
hepatic N^1-Acetyl-spermidine ([1]; 150 mg/kg): 230.96 pmoles/mg tissue wet weight
hepatic Putrescine ([1]; 150 mg/kg): 603.18 pmoles/mg tissue wet weight
hepatic Spermidine ([1]; 150 mg/kg): 260.13 pmoles/mg tissue wet weight
hepatic Spermine ([1]; 150 mg/kg): 79.41 ± 25.11 pmoles/mg tissue wet weight
hepatic α-Methyl-spermidine ([1]; 150 mg/kg): 1206.94 pmoles/mg tissue wet weight
pancreatic N^1-Acetyl-spermidine ([1]; 150 mg/kg): 185.50 pmoles/mg tissue wet weight
pancreatic Putrescine ([1]; 150 mg/kg): 4457.91 pmoles/mg tissue wet weight
pancreatic Spermidine ([1]; 150 mg/kg): 1244.49 ± 565.07 pmoles/mg tissue wet weight
pancreatic Spermine ([1]; 150 mg/kg): 213.86 pmoles/mg tissue wet weight
pancreatic α-Methyl-spermidine ([1]; 150 mg/kg): 942.74 pmoles/mg tissue wet weight
renal N^1-Acetylspermidine ([1]; 150 mg/kg): 41.78 pmoles/mg tissue wet weight
renal Putrescine ([1]; 150 mg/kg): 119.47 pmoles/mg tissue wet weight
renal Spermidine ([1]; 150 mg/kg): 201.24 ± 19.1 pmoles/mg tissue wet weight
renal Spermine ([1]; 150 mg/kg): 721.39 ± 64.84 pmoles/mg tissue wet weight
renal α-Methylspermidine ([1]; 150 mg/kg): 148.99 pmoles/mg tissue wet weight
hepatic N^1-Acetyl-spermidine ([1]; 250 mg/kg): 211.54 pmoles/mg tissue wet weight
hepatic Putrescine ([1]; 250 mg/kg): 444.97 pmoles/mg tissue wet weight
hepatic Spermidine ([1]; 250 mg/kg): 199.53 pmoles/mg tissue wet weight
hepatic Spermine ([1]; 250 mg/kg): 36.38 ± 9.89 pmoles/mg tissue wet weight
hepatic α-Methyl-spermidine ([1]; 250 mg/kg): 1293.76 pmoles/mg tissue wet weight
pancreatic N^1-Acetyl-spermidine ([1]; 250 mg/kg): 137.01 pmoles/mg tissue wet weight
pancreatic Putrescine ([1]; 250 mg/kg): 4637.87 pmoles/mg tissue wet weight
pancreatic Spermidine ([1]; 250 mg/kg): 967.83 ± 396.04 pmoles/mg tissue wet weight
pancreatic Spermine ([1]; 250 mg/kg): 157.23 pmoles/mg tissue wet weight
pancreatic α-Methyl-spermidine ([1]; 250 mg/kg): 1166.56 pmoles/mg tissue wet weight
renal N^1-Acetylspermidine ([1]; 250 mg/kg): 48.47 pmoles/mg tissue wet weight
renal Putrescine ([1]; 250 mg/kg): 103.63 pmoles/mg tissue wet weight
renal Spermidine ([1]; 250 mg/kg): 185.82 ± 18.56 pmoles/mg tissue wet weight
renal Spermine ([1]; 250 mg/kg): 597.01 ± 91.36 pmoles/mg tissue wet weight
renal α-Methylspermidine ([1]; 250 mg/kg): 169.73 pmoles/mg tissue wet weight
hepatic N^1-Acetyl-spermidine ([1]; 375 mg/kg): 252.33 pmoles/mg tissue wet weight
hepatic Putrescine ([1]; 375 mg/kg): 861.39 pmoles/mg tissue wet weight
hepatic Spermidine ([1]; 375 mg/kg): 168.25 pmoles/mg tissue wet weight
hepatic Spermine ([1]; 375 mg/kg): 41.95 ± 8.02 pmoles/mg tissue wet weight
hepatic α-Methyl-spermidine ([1]; 375 mg/kg): 1012.46 pmoles/mg tissue wet weight
pancreatic N^1-Acetyl-spermidine ([1]; 375 mg/kg): 95.41 pmoles/mg tissue wet weight
pancreatic Putrescine ([1]; 375 mg/kg): 4826.59 pmoles/mg tissue wet weight
pancreatic Spermidine ([1]; 375 mg/kg): 1002.33 ± 365.29 pmoles/mg tissue wet weight
pancreatic Spermine ([1]; 375 mg/kg): 122.49 pmoles/mg tissue wet weight
pancreatic α-Methyl-spermidine ([1]; 375 mg/kg): 1378.62 pmoles/mg tissue wet weight
renal N^1-Acetylspermidine ([1]; 375 mg/kg): 44.65 pmoles/mg tissue wet weight
renal Putrescine ([1]; 375 mg/kg): 127.41 pmoles/mg tissue wet weight
renal Spermidine ([1]; 375 mg/kg): 173.73 ± 13.69 pmoles/mg tissue wet weight
renal Spermine ([1]; 375 mg/kg): 580.26 ± 51.87 pmoles/mg tissue wet weight
renal α-Methylspermidine ([1]; 375 mg/kg): 192.90 pmoles/mg tissue wet weight
SSAT activity, Kidney ([2]; Sg mice, 50 mg/kg): 4.98 pmoles/10 min/mg tissue wet weight
SSAT activity, Liver ([2]; Sg mice, 50 mg/kg): 3.74 pmoles/10 min/mg tissue wet weight
SSAT activity, Pancreas ([2]; Sg mice, 50 mg/kg): 6.58 pmoles/10 min/mg tissue wet weight
SSAT activity, Kidney ([2]; Sg mice, 100 mg/kg): 4.61 pmoles/10 min/mg tissue wet weight
SSAT activity, Liver ([2]; Sg mice, 100 mg/kg): 3.77 pmoles/10 min/mg tissue wet weight
SSAT activity, Pancreas ([2]; Sg mice, 100 mg/kg): 7.50 pmoles/10 min/mg tissue wet weight
SSAT activity, Kidney ([2]; Sg mice, 150 mg/kg): 5.05 pmoles/10 min/mg tissue wet weight
SSAT activity, Liver ([2]; Sg mice, 150 mg/kg): 4.16 pmoles/10 min/mg tissue wet weight
SSAT activity, Pancreas ([2]; Sg mice, 150 mg/kg): 6.91 pmoles/10 min/mg tissue wet weight
SSAT activity, Liver ([2]; Sg mice, 250 mg/kg): 3.75 pmoles/10 min/mg tissue wet weight
SSAT activity, Pancreas ([2]; Sg mice, 250 mg/kg): 12.10 pmoles/10 min/mg tissue wet weight
SSAT activity, Liver ([2]; Sg mice, 375 mg/kg): 9.52 pmoles/10 min/mg tissue wet weight
SSAT activity, Pancreas ([2]; Sg mice, 375 mg/kg): 18.19 pmoles/10 min/mg tissue wet weight
SSAT activity, Kidney ([2]; Sg mice, 500 mg/kg): 14.67 pmoles/10 min/mg tissue wet weight
SSAT activity, Liver ([2]; Sg mice, 500 mg/kg): 16.06 pmoles/10 min/mg tissue wet weight
SSAT activity, Pancreas ([2]; Sg mice, 500 mg/kg): 26.85 pmoles/10 min/mg tissue wet weight
SSAT activity, Kidney ([2]; Tg mice, 50 mg/kg): 3.19 pmoles/10 min/mg tissue wet weight
SSAT activity, Liver ([2]; Tg mice, 50 mg/kg): 74.88 pmoles/10 min/mg tissue wet weight
SSAT activity, Pancreas ([2]; Tg mice, 50 mg/kg): 179.02 pmoles/10 min/mg tissue wet weight
SSAT activity, Kidney ([2]; Tg mice, 100 mg/kg): 3.13 pmoles/10 min/mg tissue wet weight
SSAT activity, Liver ([2]; Tg mice, 100 mg/kg): 74.88 pmoles/10 min/mg tissue wet weight
SSAT activity, Pancreas ([2]; Tg mice, 100 mg/kg): 226.27 pmoles/10 min/mg tissue wet weight
SSAT activity, Kidney ([2]; Tg mice, 150 mg/kg): 3.36 pmoles/10 min/mg tissue wet weight
SSAT activity, Liver ([2]; Tg mice, 150 mg/kg): 81.59 pmoles/10 min/mg tissue wet weight
SSAT activity, Pancreas ([2]; Tg mice, 150 mg/kg): 183.078 pmoles/10 min/mg tissue wet weight
SSAT activity, Liver ([2]; Tg mice, 250 mg/kg): 95.04 pmoles/10 min/mg tissue wet weight
SSAT activity, Pancreas ([2]; Tg mice, 250 mg/kg): 188.45 pmoles/10 min/mg tissue wet weight
SSAT activity, Liver ([2]; Tg mice, 375 mg/kg): 135.53 pmoles/10 min/mg tissue wet weight
SSAT activity, Pancreas ([2]; Tg mice, 375 mg/kg): 133.57 pmoles/10 min/mg tissue wet weight
